Measurements as given in patent publication US6355692B2, “Method of inhibiting formation of infectious microorganisms” (Northeastern Ohio Universities College of Medicine, priority 1998, dated 2002).
≈ marks a conversion by molar mass, not a printed value.

Key:
[1] = tested on: Staphylococcus aureus; test: Inhibitory concentration on bacteria and yeast in vitro; assay type: cell-based
[2] = tested on: Neisseria meningitidis; test: Growth inhibition on chocolate agar containing resveratrol; assay type: cell-based
Experimental: Stock solutions of the resveratrol, obtained from Sigma Chemical Co, St. Louis, Mo. were prepared in 100% ethanol. Different quantities of the stock solution where added to melted chocolate agar which was then poured into a petri dish and allowed to solidify. […] The final concentration of ethanol in the agar was 0.5%. Control plates containing chocolate agar and ethanol at a final concentration of 0.5% were also prepared. A culture of Neisseria […] obtained from the American Type Culture Collection. Authenticity of the bacterium was confirmed utilizing standard microbiological techniques of identification. Cultures of the bacterial isolate were inoculated onto fresh plates and then 24 hours later, a suspension was made from isolated colonies. […] Thereafter, the samples were incubated at 37° C. with or without 5% CO2. All samples were visually examined for growth of the bacterium 24 hours later to determine the resveratrol concentration that inhibits growth by 50% (MIC50) and the resveratrol concentration which inhibits any visible growth (MIC100)

[3] = tested on: Candida albicans; test: Inhibitory concentration on bacteria and yeast in vitro; assay type: cell-based
[4] = tested on: Pseudomonas aeruginosa; test: as above; assay type: cell-based
[5] = tested on: Group A Beta Streptococcus; test: as above; assay type: cell-based
[6] = tested on: Neisseria gonorrhea; test: Growth inhibition on chocolate agar containing resveratrol; assay type: cell-based
Experimental: Stock solutions of the resveratrol, obtained from Sigma Chemical Co, St. Louis, Mo. were prepared in 100% ethanol. Different quantities of the stock solution where added to melted chocolate agar which was then poured into a petri dish and allowed to solidify. […] The final concentration of ethanol in the agar was 0.5%. Control plates containing chocolate agar and ethanol at a final concentration of 0.5% were also prepared. Neisseria gonorrhea was obtained from patients diagnosed with gonorrhea. The authenticity of the bacterium was confirmed utilizing standard microbiological techniques of identification. Cultures of the bacterial isolate were inoculated onto fresh plates and then 24 hours later, a suspension was made from isolated colonies. […] Thereafter, the samples were incubated at 37° C. with or without 5% CO2. All samples were visually examined for growth of the bacterium 24 hours later to determine the concentration of resveratol that inhibits growth by 50% (MIC50) as well as the concentration which inhibits any visible growth (MIC100)

[7] = tested on: cultured cells
[8] = tested on: pseudorabies virus; test: microbe, parasite or virus in culture; assay type: cell-based
[9] = tested on: Escherichia coli; test: Inhibitory concentration on bacteria and yeast in vitro; assay type: cell-based
[10] = complete inhibition of bacterial growth after 24 hours
[11] = concentrations ranging from 1 μg/ml to 200 μg/ml of solution

Question: For `Oc1ccc(/C=C/c2cc(O)cc(O)c2)cc1` [resveratrol, 3,5,4′-trihdyroxystilbene], which IC50 ([1]; Staphylococcus aureus, 50% reduction in bacterial growth after 24 hours) is on record?
Answer: > 200 µg/mL

Question: And the IC100 [1, 10]?
Answer: >200 µg/mL

Question: And the growth inhibition [1, 11]?
Answer: does not inhibit the growth

Question: And the IC50 ([2]; Neisseria meningitidis, 50% reduction in bacterial growth after 24 hours)?
Answer: 100 µg/mL (≈ 438 µM)

Question: What about the IC100 [2, 10] of the same molecule?
Answer: 125 µg/mL

Question: What about the IC50 ([3]; Candida albicans, 50% reduction in bacterial growth after 24 hours) of the same molecule?
Answer: > 200 µg/mL

Question: And the IC100 [3, 10]?
Answer: >200 µg/mL

Question: And the growth inhibition [3, 11]?
Answer: does not inhibit the growth

Question: What about the IC50 ([4]; Pseudomonas aeruginosa, 50% reduction in bacterial growth after 24 hours) of the same molecule?
Answer: > 200 µg/mL

Question: And the IC100 [4, 10]?
Answer: >200 µg/mL

Question: What about the growth inhibition [4, 11] of the same molecule?
Answer: does not inhibit the growth

Question: What about the IC50 ([5]; Streptococcus, 50% reduction in bacterial growth after 24 hours) of the same molecule?
Answer: > 200 µg/mL

Question: What about the IC100 [5, 10] of the same molecule?
Answer: >200 µg/mL

Question: What about the growth inhibition [5, 11] of the same molecule?
Answer: does not inhibit the growth

Question: And the IC50 ([6]; Neisseria, 50% reduction in bacterial growth after 24 hours)?
Answer: 25 µg/mL (≈ 110 µM)

Question: What about the IC100 [6, 10] of the same molecule?
Answer: 75 µg/mL

Question: What about the “toxicity to cultured cells” value [7] of the same molecule?
Answer: non-toxic to cells

Question: And the “reversibility of effect on pseudorabies virus replication” value [8]?
Answer: reversible

Question: And the inhibition at 50 µg/mL ([8]; Suid alphaherpesvirus 1, Vero, 24 h, read-out: inhibition of formation of infectious virus particles)?
Answer: > 99%

Question: What about the “infectious pseudorabies virus particles in cultures” value ([8]; continuously incubated with 50 μg/ml resveratrol, 72 hours) of the same molecule?
Answer: virtually undetectable

Question: What about the IC50 ([9]; Escherichia coli, 50% reduction in bacterial growth after 24 hours) of the same molecule?
Answer: > 200 µg/mL

Question: What about the IC100 [9, 10] of the same molecule?
Answer: >200 µg/mL

Question: What about the growth inhibition [9, 11] of the same molecule?
Answer: does not inhibit the growth
